Measurements published in US9783585B2, “Compositions and methods for increasing the expression and signalling of proteins on cell surfaces” (JOHNS HOPKINS UNIVERSITY, priority 2013, dated 2017).

Experiments:
mOREG = molecular target: T1, mOREG (Mus musculus, UniProt Q920P2); test: Luciferase reporter assay (CRE Firefly:Renilla), mOREG constructs; type: cell-based; settings: Rho-mOREG, Lucy-mOREG and Lucy-Rho-mOREG, no RTP1S, eugenol 100-300 μM, P≦0.05, 300 μM vs 0 μM
T1 construct: The mOR-EG full-length construct, containing N-terminal Flag/Rho tags; expressed in transfected cells; host or cells: HEK293T
T1 sequence (Q920P2 1-313): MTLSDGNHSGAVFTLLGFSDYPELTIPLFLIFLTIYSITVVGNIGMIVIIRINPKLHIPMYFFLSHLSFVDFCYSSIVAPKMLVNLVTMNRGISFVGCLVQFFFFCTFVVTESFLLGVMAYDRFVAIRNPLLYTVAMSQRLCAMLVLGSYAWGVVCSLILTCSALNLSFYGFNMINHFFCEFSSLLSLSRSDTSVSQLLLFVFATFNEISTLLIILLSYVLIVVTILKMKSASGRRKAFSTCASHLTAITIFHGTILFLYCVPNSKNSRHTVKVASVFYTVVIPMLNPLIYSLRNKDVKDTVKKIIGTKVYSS
Protocol: (§1) Luciferase Assay. The luciferase assay was performed as previously described. Briefly, ORs were transfected into HEK293T cells along with constructs encoding for CREB-dependent luciferase (Firefly) and a constitutively expressed luciferase (Renilla). OR activation leads to a rise in cAMP which drives an increase in Firefly luciferase expression. Firefly activity is normalized to the activity of the Renilla luciferase to control for variation in cell number and transfection efficiency. Data were collected using a FLUOstar Omega automated platereader (BMG LabTech, Cary, N.C.). For some experiments, RTP1S was also transfected.
Statistical Analysis. One-way ANOVA analysis followed by the Student-Newman Keuls test was performed on the luciferase reporter assay to compare the doses of isovaleric acid (0.1-5 mM) or eugenol (100-300 μM) to the non-treated control (0 μM). As each condition was performed in triplicate, the analyses were done with an n=3, and P values≦0.05 were deemed significant. One-way ANOVE followed by Student-Newman Keuls was also used to analyze the surface expression data in FIG. 7. […]
As mOREG is one of the ORs that reach the cell surface under every condition tested, we expressed the OR with and without the Lucy and Rho tags and assessed its response to eugenol.

Olfr691 = molecular target: T2, Olfr691 (Mus musculus, UniProt Q8VGW5); test: Luciferase reporter assay (CRE Firefly:Renilla), Olfr691 constructs; type: cell-based; settings: 0.1-5 mM isovaleric acid
T2 construct: The other full-length ORs were amplified using primers which added appropriate restriction sites; expressed in transfected cells; host or cells: HEK293T
T2 sequence (Q8VGW5 1-322): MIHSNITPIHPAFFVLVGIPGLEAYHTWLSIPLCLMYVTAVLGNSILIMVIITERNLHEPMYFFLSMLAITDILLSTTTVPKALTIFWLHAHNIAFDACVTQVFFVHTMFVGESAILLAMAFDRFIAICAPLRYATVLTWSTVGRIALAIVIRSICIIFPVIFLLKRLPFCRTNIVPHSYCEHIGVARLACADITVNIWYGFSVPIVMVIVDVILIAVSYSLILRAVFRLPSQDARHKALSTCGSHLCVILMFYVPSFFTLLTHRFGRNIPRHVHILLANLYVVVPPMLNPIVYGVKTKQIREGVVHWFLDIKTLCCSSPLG
Protocol: as §1
Statistical Analysis. One-way ANOVA analysis followed by the Student-Newman Keuls test was performed on the luciferase reporter assay to compare the doses of isovaleric acid (0.1-5 mM) or eugenol (100-300 μM) to the non-treated control (0 μM). As each condition was performed in triplicate, the analyses were done with an n=3, and P values≦0.05 were deemed significant. One-way ANOVE followed by Student-Newman Keuls was also used to analyze the surface expression data in FIG. 7. A Student T-Test was performed on the ELISA to assess the significance of the increased protein expression (Control construct vs. Lucy construct for each OR, n=4 for each condition). P values≦0.05 were deemed significant. In both the luciferase reporter assay and the ELISA, the error bars represent the SEM.
To determine whether Lucy-tagged ORs expressed on the cell surface can still respond to their ligands in the absence of RTP1S, and to ensure that the Lucy tag is not altering ligand binding or detection, we assayed for a functional ligand response using a luciferase reporter assay. In this assay, OR-ligand binding leads to an increase in cAMP which drives the expression of a CRE luciferase. An increase in the Firefly (CRE-dependent luciferase): Renilla (constitutively activated luciferase) ratio indicates OR activation. Previously, it was determined that Olfr691 responds to isovaleric acid. […]

| OR activation (Firefly:Renilla ratio) (Olfr691; Lucy-Rho-Olfr691 with and without RTP, P<0.007 vs 0 mM) | OR activation (Firefly:Renilla ratio) (Olfr691; Rho-Olfr691 co-expressed with RTP1S, P≦0.002 vs 0 mM) | Structure (SMILES) | OR activation (Firefly:Renilla ratio) (mOREG) | OR activation (Firefly:Renilla ratio) (Olfr691; Rho-Olfr691 without RTP1S) |
| --- | --- | --- | --- | --- |
|  |  | C=CCc1ccc(O)c(OC)c1 [eugenol] | dose-dependent activation |  |
| dose-dependent manner | dose-dependent increase | CC(C)CC(=O)O [isovaleric acid] |  | not significantly activated at any concentration |
